Consider four molecules from patent US5747463A, “Malonate derivatives of glycolipids as cell adhesion inhibitors” (Bristol-Myers Squibb Company, priority 1996, dated 1998).

The subject of assay [1] is platelet: HL-60 cell adhesion. The assay is described as follows: HL-60 Platelet Cell Adhesion Assay. It is filed as cell-based. As to conditions: 0.5 h; thrombin-activated human platelets: HL-60 5:1, 30 minutes at room temperature; read-out: P-selectin HL-60 Platelets IC50. Here is the method: HL-60 cells, obtained from American Type Culture Collection, were cultured in RPMI 1640 medium (GIBCO) supplemented with 20% fetal calf serum (Sigma) and 50 μg/ml gentamicin (GIBCO). Cells in log phase growth were harvested, washed and resuspended in Tyrodes buffer containing 5 mM HEPES and 0.2% bovine serum albumin and were fixed with 1% buffered formalin.
Blood from normal human donors was anticoagulated with citrate, layered over 1-Step Platelets (Accurate Chemical Co.) and centrifuged at 350 g for 20 minutes at room temperature. The platelet band was collected, diluted in 2 volumes of Tyrode's Buffer with 5 mM HEPES, 10 mM EDTA, and 0.2% BSA (pH 7.4) (THEB) and centrifuged at 600 g for 10 minutes. The platelet pellet was resuspended in THEB and incubated at room temperature for 1 hour. Calcein-acetoxy methylester (Calcein-Am, Molecular Probes) was added to the platelets at a final concentration of 10 μM and incubated for 10 minutes at 37° C. to label the platelets. Without washing, the platelets were counted on a Coulter counter model ZM, and the concentration was adjusted to 1×10^7 /ml. The platelets were activated with 2 U/ml of human thrombin for 10 minutes in Tyrode's containing 2 mM CaCl2, 5 mM HEPES, and 0.2% BSA (pH 7.4) (THB) at 37° C. and immediately fixed with 1% buffered formalin for 1 to 2 hours at room temperature. A small aliquot of labeled platelets was removed before activation and designated as non-activated.
Both platelets and HL-60 were washed in a ≥25 fold excess volume of Hanks Balanced Salt Solution (HBSS), resuspended in THB and counted. Cell concentrations were adjusted to 2×10^7 /ml for platelets and 4×10^6 /ml for HL-60, this ratio determined to be optimum for platelet: HL-60 cell adhesion. Compounds were incubated with 50 μl of platelets for 30 minutes at room temperature before addition of 50 μl of HL-60. This ratio of 5:1 platelets to HL-60 was incubated for 30 minutes at room temperature before addition of 0.2 ml of THB to increase the volume so the samples could be analyzed on a FACScan cytometer (Becton Dickinson). Non-activated platelets, and activated platelets with 10 mM EDTA were included as controls. Data were collected within a region set for the forward scatter channel corresponding to HL-60 size events.
The percent HL-60 cells which contained bound platelets was determined for each test condition. The inhibition of binding was determined by comparison to standards which were treated with vehicle alone (representing 0% inhibition) and standards whose specific binding had been blocked by the use of EDTA (representing 100% inhibition), by the following formula: [formula] where x=HL-60 cells containing bound platelets in the presence of the compound;
b=HL-60 cells containing bound platelets in the presence of EDTA;
a=HL-60 cells containing bound platelets in the presence of compound vehicle;
z=% inhibition of platelet: HL-60 cell adhesion

The subject of assay [2] is P-selectin. The assay is described as follows: P-Selectin adhesion receptor binding: ELISA, inhibition of P-selectin binding to immobilized sulfatides (cell free). To be noted: 45 minutes at 37° C., pH 8.0. The method, then: Based on the availability of soluble forms of P-selectin prepared as described by Aruffo, A. et al., Cell, 67, 35-44 (1991), a binding ELISA based assay modified from Foxall, et al., J. Cell Biol., 117, 1895-902 (1992) was developed to measure inhibitors of P-selectin binding to immobilized sulfatides. Such inhibitors were tested in the assay described below.
0.1 ml of sulfatide (SIGMA) at 1 μg/ml in MeOH was added to 48 wells of a 96-well ELISA plate (ProBind, Falcon) and allowed to dry overnight at room temperature. Another set of 48 wells were incubated with the solvent (methanol, Fisher Scientific). The next day the antigen/solvent coated plates were blocked for 1.5 hours at room temperature with 5% BSA (ICN) in buffer containing 20 mM Hepes, 1 mM CaCl2 and 0.15M NaCl, pH 8.0. […] Bound complexes were detected by addition of substrate buffer (95 mM NaOAc.3H2 O, 5 mM citric acid monohydrate, 1.4 mM urea/H2 O2) containing 3,3',5,5'-tetramethylbenzidine (SIGMA). Reactions were stopped by the addition of 3N sulfuric acid and the absorbance read on an ELISA reader at dual wavelengths 450 and 630 nm. […] The data is obtained as percent inhibition of specific binding [formula] and a plot of dose vs. percent inhibition of Rg binding is generated in which IC50 (μM) is calculated and reported as cell free data in Table 1.

Assay [3] relates to rats. The assay is described as follows: Reverse Passive Arthus Reaction in Rats (RPA). It is filed as in vivo, male Sprague Dawley rats. As to conditions: single dose of 3 mg IV, rat, 4 hours after BSA. The text has this: The reverse passive Arthus reaction in rats is a modification of the method by Mulligan et al., as described in J. Clin. Invest, (1991) 88: 1396-1406. This is an experimental model in which the interaction of antigen-antibodycomplexes and complement leads to a severe vasculitis that is associated with edema, induration, erythema and hemorrhage. The interaction between the antigen-antibody complexes and complement leads to a localized influx of neutrophils. These neutrophils release a variety of mediators that are associated with tissue damage and vascular permeability. The localized inflammatory reaction is measured using different techniques i.e., vascular permeability and neutrophil influx which is evaluated both biochemically and microscopically.
Male Sprague Dawley specific pathogen-free rats with jugular vein cannulae (280-320 g, Hill Top Labs, Pennsylvania) are used in these studies. Animals are acclimated for at least 1 day and individually housed in stainless steel cages. The dorsal region of the rats is closely clipped 2 days prior to the experiments and divided into 4 sites on each side of the midline. Prior to all injections the rats are sedated with 0.4 ml per 300 gm rat of ketamine/rompun [1000 mg (10 ml) of ketamine HCl is mixed with 40 mg (2.0 ml) Rompun] administered IP and or inhalation anesthesia with metafane (methoxyflurane).
Bovin Serum Albumin (BSA) and rabbit polyclonal IgG rich in anti-BSA are purchased from Sigma Chemical Co. (St. Louis, Mo.). Radiolabelled ^125 I-BSA (spAct 1-5 μCi/μg) is purchased from Dupont NEN (Boston, Mass.).
Each rat is administered intradermal (ID) injection of (0.4 mg, 0.6 mg and 0.8 mg) anti-BSA in a volume of 100 μl per injection in normal saline. The ID injections are randomized near the mid dorsal region on both sides of the back bone. Immediately after the ID injections of the anti-BSA, the rats are administered intravenous (IV) injections of BSA (10 mg in 1.0 ml) in normal saline containing ^125 I labeled BSA (1 μCi/ml BSA or 5.0 μCi/kg body/wt) for quantification of dermal valscular injury. Anti-inflammatory agents such as inhibitors of adhesion molecules of the present invention are administered IV at a single dose of 3 mg immediately after BSA. Four (4) hours after the IV injection of BSA, the rats are anesthetized with metafane and 2 to 3 ml of blood is withdrawn via the cannula into an anticoagulant containing (EDTA or Heparin) tube and plasma separated and saved for neutrophil and albumin quantitation. The rats are killed and the skin surrounding the injection site (15 mm diameter) is punched out and weighed. The skin sample and a fixed volume of plasma (0.1 to 1.0 ml) is analyzed in a gamma-counter for ^125 I content. Skin samples from the contralateral side are processed and analyzed for myeloperoxidase activity (MPO) as a measure of neutrophil accumulation. As needed, samples are also processed for histological evaluation of the reacted sites.
The calculation of the plasma protein exudation into skin is made by determining the radioactivity in the tissue and relating this to the level of radioactive albumin in the blood at the time of sacrifice. […] [formula]
Percent inhibition of the test compound at 3 mg was determined as follows: [formula] Myeloperoxidase (MPO)
MPO is located in the azurophil granules of polymorphonuclear leukocytes (PMN). Because of its abundance in these cells (5% dry weight), this enzyme is used as a marker for tissue neutrophil content. For tissue MPO content, the method of Bradley, et al., was used as described in J. Invest. Dermatol. (1982) 78: 206-209. Biopsies from each treatment group were placed in plastic tubes (15×100 mm) containing 10 ml of 0.5% hexadecyltrimethylammonium bromide (HTAB) in 0.05M potassium phosphate buffer pH 6.0. The tissue was then homogenized with a Brinkmann Polytron homogenizer (10s). […]

Assay [4] concerns myeloid cell lines. To be noted: cells grown in the presence of the substance; cited from earlier work.
Assay [5] has as its target T1, P-selectin (Homo sapiens, UniProt P16109).
T1 sequence (P16109 42-830): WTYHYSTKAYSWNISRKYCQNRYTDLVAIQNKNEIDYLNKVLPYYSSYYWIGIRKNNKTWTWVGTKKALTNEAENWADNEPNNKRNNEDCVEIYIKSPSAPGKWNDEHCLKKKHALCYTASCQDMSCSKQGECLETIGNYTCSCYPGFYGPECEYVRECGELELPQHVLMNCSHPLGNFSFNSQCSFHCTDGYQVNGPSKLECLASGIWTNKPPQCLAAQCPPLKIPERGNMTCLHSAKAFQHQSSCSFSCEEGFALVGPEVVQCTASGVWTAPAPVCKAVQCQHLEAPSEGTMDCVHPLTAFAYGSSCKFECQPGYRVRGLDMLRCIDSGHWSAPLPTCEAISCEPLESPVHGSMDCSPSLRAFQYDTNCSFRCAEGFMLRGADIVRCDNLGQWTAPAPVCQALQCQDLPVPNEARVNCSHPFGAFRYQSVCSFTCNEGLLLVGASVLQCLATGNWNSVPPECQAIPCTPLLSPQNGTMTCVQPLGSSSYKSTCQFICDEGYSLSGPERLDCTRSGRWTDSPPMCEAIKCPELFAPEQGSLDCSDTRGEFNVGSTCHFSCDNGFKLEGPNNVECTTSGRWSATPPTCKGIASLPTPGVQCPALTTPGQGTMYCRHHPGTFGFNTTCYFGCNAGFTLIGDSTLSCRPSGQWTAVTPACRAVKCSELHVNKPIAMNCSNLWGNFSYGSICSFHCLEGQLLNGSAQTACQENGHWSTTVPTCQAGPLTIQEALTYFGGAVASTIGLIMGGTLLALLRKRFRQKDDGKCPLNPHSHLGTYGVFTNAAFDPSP
To be noted: literature; cited from earlier work.

In general, IC50 refers to the point on the concentration scale where inhibition reaches its midpoint. Regarding `CCCCCCCCCCCCC/C=C/[C@@H](OC(=O)c1ccccc1)[C@H](CO[C@H]1O[C@H](CO)[C@H](O)[C@H](OC(=O)c2ccccc2)[C@H]1OCCCCC(C(=O)O)C(=O)O)NC(=O)CCCCCCCCCCCCCCC` [Example 4, (2S,3R,4E)-3-Benzoyloxy-2-hexadecanoylamino-1-[2-O-(5,5-dicarboxypent-1-yl)-3-O-benzoyl-α-D-galactopyranosyloxy]-4-octadecene], in assay [1], the IC50 amounted to 19 µM. The molecule further registered a half-inhibitory concentration (IC50) in assay [2] of 7 µM. Also, in assay [3], the “RPA MPO % Inhib. (myeloperoxidase)” value came out at 84% and the “RPA VP % Inhib. (vascular permeability)” value was 60%.
As for `O=[Se](=O)(O)O` [sodium selenate], the “inhibition of binding of P-selectin to myeloid cell lines” value in assay [4] was “can be inhibited”.
Consider `CC(=O)N[C@H]1C(O)O[C@H](CO)[C@@H](O[C@@H]2O[C@H](CO)[C@H](O)[C@H](O)[C@H]2O)[C@@H]1O[C@@H]1O[C@@H](C)[C@@H](O)[C@@H](O)[C@@H]1O` (stereo partly shown) [Le^x], for which the “binding to P-selectin” value in assay [5] is recorded as “shown to bind”.
Regarding `CCCCCCCCCCCCC/C=C/[C@@H](OC(=O)c1ccccc1)[C@H](CO[C@H]1O[C@H](CO)[C@H](O)[C@H](OC(=O)c2ccccc2)[C@H]1OCCC(C(=O)O)C(=O)O)NC(=O)CCCCCCCCCCCCCCC` [Example 2, (2S,3R,4E)-3-Benzoyloxy-2-hexadecanoylamino-1-[2-O-(3,3-di-carboxyprop-1-yl)-3-O-benzoyl-α-D-galactopyranosyloxy]-4-octadecene], the 50% inhibitory concentration (IC50) in assay [1] is 12 µM; in assay [2] it was 8.2 µM. For the same molecule, the “RPA MPO % Inhib. (myeloperoxidase)” value in assay [3] is on record as 96%. The “RPA VP % Inhib. (vascular permeability)” value in assay [3] is reported as 41%.
